Data as given in patent US11389447B2 (Janssen Sciences Ireland Unlimited Company, priority 2006, dated 2022).
Like-named read-outs stand apart in the source and are kept apart here.

Legend:
[1] = Kinetic study: plasma kinetics of TMC278 after single IM or SC injection of a nanosuspension; type: in vivo, male beagle dogs; settings: male, beagle, dog, plasma, sc, 5 mg/kg; for AUC(0-t) / Cmax / Tmax: single SC 5 mg/kg TMC278 nanosuspension; for Cmax: read-out: Cmax; for Tmax: read-out: Tmax;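 for all read-outs here: healthy male beagle dogs injected in both biceps femoris muscles (IM) or both thoracal sides (SC), total volume 0.2 mL/kg, drug measured in plasma from blood samples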
Method: Six healthy male beagle dogs with body weights ranging from 8 to 16 kg at the start of the study, were used. Each dog was identified by an ear tattoo number. Two dogs were dosed intramuscularly (IM) in the left and right m. biceps femoris (treatment group A). […] Two dogs were dosed subcutaneously (SC) in the left and right thoracal region. The injection volume was 2×0.1 ml/kg in all treatment groups. A 20 G needle was used.
Blood samples of 3 ml were taken from the left jugular vein from all dogs on day 0 at 0 h (predose), 20 min, 1 h, 3 h, 8 h and 24 h post-dose and further on days 2, 3, 6, 8, 10, 13, 16, 20, 23, 27, 29, 36, 43, 50, 57, 64, 71, 78, 85 and 92 at approximately 8 AM. Blood samples were placed on EDTA, EDTA Vacuette Greiner, Cat. No. 454086, Greiner Labortechnik N.V.). Within 2 h of blood sampling, samples were centrifuged at room temperature at about 1900×g for 10 minutes to allow plasma separation. Plasma was immediately transferred into a second tube and stored in the freezer within 2 hours after the start of centrifugation.

mutated variants of HIV = settings: many of its mutated variants; cited from earlier work

Cc1cc(C=CC#N)cc(C)c1Nc1ccnc(Nc2ccc(C#N)cc2)n1 [TMC278, 4-[[4-[[4-(2-cyanoethenyl)-2,6-dimethylphenyl]amino]-2-pyrimidinyl]amino]benzonitrile]
concentration at 1536 h ([1]; plasma concentration of TMC278, single SC 5 mg/kg TMC278 nanosuspension, dog 19349, 1536 h (d64)): 2.05 ng/mL
concentration at 1704 h ([1]; plasma concentration of TMC278, single SC 5 mg/kg TMC278 nanosuspension, dog 19349, 1704 h (d71)): 3.57 ng/mL
concentration at 1872 h ([1]; plasma concentration of TMC278, single SC 5 mg/kg TMC278 nanosuspension, dog 19349, 1872 h (d78)): 1.91 ng/mL
concentration at 2040 h ([1]; plasma concentration of TMC278, single SC 5 mg/kg TMC278 nanosuspension, dog 19349, 2040 h (d85)): 2.82 ng/mL
concentration at 2208 h ([1]; plasma concentration of TMC278, single SC 5 mg/kg TMC278 nanosuspension, dog 19349, 2208 h (d92)): 2.49 ng/mL
concentration at 0 h ([1]; plasma concentration of TMC278, single SC 5 mg/kg TMC278 nanosuspension, mean of 2 dogs, 0 h (d0, predose)): < 1 ng/mL
concentration at 1 h ([1]; plasma concentration of TMC278, single SC 5 mg/kg TMC278 nanosuspension, mean of 2 dogs, 1 h): 1.5 ng/mL
concentration at 3 h ([1]; plasma concentration of TMC278, single SC 5 mg/kg TMC278 nanosuspension, mean of 2 dogs, 3 h): 8.19 ng/mL
concentration at 8 h ([1]; plasma concentration of TMC278, single SC 5 mg/kg TMC278 nanosuspension, mean of 2 dogs, 8 h): 20.7 ng/mL
concentration at 24 h ([1]; plasma concentration of TMC278, single SC 5 mg/kg TMC278 nanosuspension, mean of 2 dogs, 24 h (d1)): 22.1 ng/mL
concentration at 48 h ([1]; plasma concentration of TMC278, single SC 5 mg/kg TMC278 nanosuspension, mean of 2 dogs, 48 h (d2)): 32 ng/mL
concentration at 72 h ([1]; plasma concentration of TMC278, single SC 5 mg/kg TMC278 nanosuspension, mean of 2 dogs, 72 h (d3)): 28.4 ng/mL
concentration at 144 h ([1]; plasma concentration of TMC278, single SC 5 mg/kg TMC278 nanosuspension, mean of 2 dogs, 144 h (d6)): 25.8 ng/mL
concentration at 192 h ([1]; plasma concentration of TMC278, single SC 5 mg/kg TMC278 nanosuspension, mean of 2 dogs, 192 h (d8)): 20.4 ng/mL
concentration at 240 h ([1]; plasma concentration of TMC278, single SC 5 mg/kg TMC278 nanosuspension, mean of 2 dogs, 240 h (d10)): 33.2 ng/mL
concentration at 312 h ([1]; plasma concentration of TMC278, single SC 5 mg/kg TMC278 nanosuspension, mean of 2 dogs, 312 h (d13)): 30.3 ng/mL
concentration at 384 h ([1]; plasma concentration of TMC278, single SC 5 mg/kg TMC278 nanosuspension, mean of 2 dogs, 384 h (d16)): 19.2 ng/mL
concentration at 480 h ([1]; plasma concentration of TMC278, single SC 5 mg/kg TMC278 nanosuspension, mean of 2 dogs, 480 h (d20)): 25.5 ng/mL
concentration at 648 h ([1]; plasma concentration of TMC278, single SC 5 mg/kg TMC278 nanosuspension, mean of 2 dogs, 648 h (d27)): 15 ng/mL
concentration at 696 h ([1]; plasma concentration of TMC278, single SC 5 mg/kg TMC278 nanosuspension, mean of 2 dogs, 696 h (d29)): 15.8 ng/mL
concentration at 864 h ([1]; plasma concentration of TMC278, single SC 5 mg/kg TMC278 nanosuspension, mean of 2 dogs, 864 h (d36)): 9.1 ng/mL
concentration at 1032 h ([1]; plasma concentration of TMC278, single SC 5 mg/kg TMC278 nanosuspension, mean of 2 dogs, 1032 h (d43)): 5.63 ng/mL
concentration at 1200 h ([1]; plasma concentration of TMC278, single SC 5 mg/kg TMC278 nanosuspension, mean of 2 dogs, 1200 h (d50)): 4.89 ng/mL
concentration at 1368 h ([1]; plasma concentration of TMC278, single SC 5 mg/kg TMC278 nanosuspension, mean of 2 dogs, 1368 h (d57)): 3.65 ng/mL
concentration at 1536 h ([1]; plasma concentration of TMC278, single SC 5 mg/kg TMC278 nanosuspension, mean of 2 dogs, 1536 h (d64)): 4.25 ng/mL
concentration at 1704 h ([1]; plasma concentration of TMC278, single SC 5 mg/kg TMC278 nanosuspension, mean of 2 dogs, 1704 h (d71)): 3.77 ng/mL
concentration at 1872 h ([1]; plasma concentration of TMC278, single SC 5 mg/kg TMC278 nanosuspension, mean of 2 dogs, 1872 h (d78)): 2.79 ng/mL
concentration at 2040 h ([1]; plasma concentration of TMC278, single SC 5 mg/kg TMC278 nanosuspension, mean of 2 dogs, 2040 h (d85)): 5.71 ng/mL
concentration at 2208 h ([1]; plasma concentration of TMC278, single SC 5 mg/kg TMC278 nanosuspension, mean of 2 dogs, 2208 h (d92)): 2.77 ng/mL
AUC(0-t) ([1]; dog 19129, read-out: AUC0-312 h): 6910 ng·h/mL
AUC(0-t) ([1]; dog 19129, read-out: AUC0-696 h): 15900 ng·h/mL
AUC(0-t) ([1]; dog 19129, read-out: AUC0-2208 h): 26400 ng·h/mL
Cmax ([1]; dog 19129): 34.8 ng/mL
Tmax ([1]; dog 19129): 48 h
AUC(0-t) ([1]; dog 19349, read-out: AUC0-312 h): 9880 ng·h/mL
AUC(0-t) ([1]; dog 19349, read-out: AUC0-696 h): 16700 ng·h/mL
AUC(0-t) ([1]; dog 19349, read-out: AUC0-2208 h): 22400 ng·h/mL
Tmax ([1]; dog 19349): 240 h
AUC(0-t) ([1]; mean of 2 dogs, read-out: AUC0-312 h): 8400 ng·h/mL
AUC(0-t) ([1]; mean of 2 dogs, read-out: AUC0-696 h): 16300 ng·h/mL
AUC(0-t) ([1]; mean of 2 dogs, read-out: AUC0-2208 h): 24400 ng·h/mL
Cmax ([1]; mean of 2 dogs): 38.4 ng/mL
Tmax ([1]; mean of 2 dogs): 144 h
activity against mutated variants of HIV (in words) (mutated variants of HIV): pronounced activity
